Experimental data: patent publication US20250213560A1, “NITROGEN-CONTAINING HETEROCYCLIC COMPOUNDS HAVING PHENYL GROUP AND USES THEREOF” (BNH RESEARCH CO., LTD., priority 2022, published 2025)

How the values were obtained:
[1] = test system: mouse barrel cortex (layer 4); assay: Ex vivo synaptic plasticity (TC EPSC potency, GABA/AMPA ratio) in barrel cortex after in vivo administration; details: C57BL/6J mice
Description: Eight weeks old male C57BL/6J mice were anesthetized with isoflurane during surgery. The mice were then be placed in a stereotaxic frame (RWD Life Science, China). The parietal and the frontal bones were exposed by a sagittal incision of the scalp at the midline from the level of the eyes to the occipital protuberance. A small burr hole was drilled after exposing the skull. The injection cannula was placed at the following coordinates: (Mouse: Bregma-3.30, lateral-1.50, and ventral 0.7 mm). Sterile saline solution (+/−a compound of the present disclosure) was perfused at a constant flow rate of […] through the injection cannula using a mini-Os pump (DURECT Corporation ALZET Osmotic Pumps, CA). Implantation was done in layer 4 of the barrel cortex ipsilateral. To estimate extent of the diffusion of the injected compound in layer 4 barrel cortex during pump injection, methylene blue was first injected to stain the diffusion area. On average methylene blue diffused to 2000.0 μm away from the injection site (the total area of the barrel cortex region is about 1500 μm). Based on this analysis, the present inventors recorded from barrel cortex area.
The compound was diluted to 25 mg/kg using DMSO: PEG400: Saline (5:55:40). The compound was administered intraperitoneal at 10:00 a.m. daily (i.p. volume was 200 ul) for about 11 to 12 days. Control group was also administered by i.p. injection in the same manner using the vehicle (DMSO: PEG400: Saline (5:55:40)). 5 mice were used for the compound administration group and the control group, respectively.
For TC or hippocampus slice preparation, 9 to 10 weeks-old male C57BL/6J mice were anesthetized with isoflurane. Then, the brain was rapidly cooled via transcardial perfusion with ice-cold sucrose-artificial cerebrospinal fluid (aCSF). The brain was removed and placed in ice-cold sucrose aCSF. Paracoronal slices were prepared at an angle of 50° relative to the midline on a ramp at an angle of 10°. Then, slices were incubated in aCSF at 35° C. for 30 minutes to recover. […]
Whole cell recordings were made using a multiclamp 700A (Molecular devices, Sunnyvale, CA)digitized at 10 kHz and filtered at 2 kHz. Input resistance and series resistance were monitored continuously during recordings, as previously described (see Isaac, Crair, Nicoll, & Malenka, 1997, Silent synapses during development of thalamocortical inputs, DOI: 10.1016/s0896-6273 (00) 80267-6).
For the minimal stimulation protocol (Potency), VB thalamic stimulation intensity was adjusted to find the lowest intensity that elicited a mixture of synaptic responses and failures. Failure rate was calculated as the number of failures/total number of trials. […]

[2] = test system: GluN2B; assay: GluN2B protein expression by Western blot in primary cortical neuron cells; type: cell-based, mouse
In short: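 Mouse fetal cortical neurons (E17–18) cultured 13–14 days, then treated with BnH compounds for 24 h. GluN2B in RIPA lysates (20 μg/lane) measured by Western blot, normalized to β-actin, and expressed relative to vehicle set to 1 (n ≥ 3).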

[3] = Os pump, 3 μM continuously for 2 weeks, barrel cortex layer 4
[4] = intraperitoneal 25 mg/kg once a day for about 11 or 12 days

## C[C@H]1CC[C@@H](C(=O)O)CN1C(=O)Cc1ccc(-c2cncnc2)cc1 [BnH12003, (3R,6S)-6-methyl-1-(2-(4-(pyrimidin-5-yl)phenyl)acetyl) piperidine-3-carboxylic acid]
[1]; [3]
  GABA/AMPA ratio (balance of excitation/inhibition): balance of excitation/inhibition was maintained
  excitatory TC synaptic potency (TC potency): significantly increased
[1]; [4]
  GABA/AMPA ratio (balance of excitation/inhibition): maintaining the balance of excitation/inhibition
  TC synaptic potency in the sensory cortex: increase TC synaptic potency
[2]; compared to vehicle / other compounds, Table 5
  GluN2B expression effect (in words): excellent effects
[2]; relative value, vehicle set to 1, primary cortical neurons treated for 24 hours
  Western blot results Mean (GluN2B expression): 2.141
